# Measurements: patent publication US12091708B2, “Compositions and methods targeting the Th2 pathway for the treatment of asthma” (THE CHILDREN'S HOSPITAL OF PHILADELPHIA, priority 2017, dated 2024)
# Target: T1, CRTH2 receptor (Homo sapiens, UniProt Q9Y5Y4)
# T1 construct: CD3+ cells were isolated from the rested PBMCs using Human T-Expander CD3/CD28 Dynabeads; endogenous in cells; host or cells: primary human CD3+/CD28+ T cells purified from PBMCs of healthy volunteers, expanded 10 days under TH2-skewing conditions
# T1 sequence (Q9Y5Y4 1-395): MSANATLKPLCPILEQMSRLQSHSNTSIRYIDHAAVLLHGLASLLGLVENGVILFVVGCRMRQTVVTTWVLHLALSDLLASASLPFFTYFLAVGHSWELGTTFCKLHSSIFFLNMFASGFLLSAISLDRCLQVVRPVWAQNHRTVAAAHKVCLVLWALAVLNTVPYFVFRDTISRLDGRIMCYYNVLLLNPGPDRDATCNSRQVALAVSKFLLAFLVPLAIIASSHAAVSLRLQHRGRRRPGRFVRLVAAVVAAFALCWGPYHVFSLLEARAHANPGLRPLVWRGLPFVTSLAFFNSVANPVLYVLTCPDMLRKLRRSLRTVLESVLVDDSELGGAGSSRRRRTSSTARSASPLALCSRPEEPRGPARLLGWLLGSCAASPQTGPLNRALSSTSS
# Test: CRTH2 assay: IL-13 expression (qPCR) in expanded, TH2-skewed T cells stimulated with PGD2 with or without CD3/CD28
# Assay type: cell-based
# Conditions: T cells from healthy human volunteers, increasing concentrations of PGD2, with CD3/CD28 stimulation (FIG. 4)
# Protocol: As discussed above, CRTH2 is a key regulator of TH2 cytokine expression and action. We developed a CRTH2 assay to determine the effects of the SNP, rs2786098, on CRTH2 expression and action. The CRTH2 assay was developed using the following protocol. PBMCs were thawed and placed into 10 ml of RPMI+20% FBS in 15 ml conical tubes. Tubes were closed tightly, and placed on a rocker in the incubator overnight. Viable cell counts were obtained the following day. CD3+ cells were isolated from the rested PBMCs using Human T-Expander CD3/CD28 Dynabeads. These magnetic beads were used to purify CD3+/CD28+ T cells from the PBMC mixture, and then left in the cell culture to provide stimulation and co-stimulation to induce expansion of the T cells. Purified T cells were cultured with the beads in the presence of IL-2, IL-4, anti-IFNγ, and anti-IL-12. IL-2 provides a proliferative stimulus, while IL-4, anti-IFNγ, and anti-IL-12 provide TH2 skewing conditions. Cells were cultured, and culture volume was increased as required, for 10 days, at which point, they were stimulated at 500,000 cells per well with the indicated stimuli for 8 hours. Cell pellets were harvested and RNA was extracted. Gene expression was determined by qPCR. […]
structure (smiles),measurement,value
"CCCCC[C@H](O)/C=C/[C@H]1C(=O)C[C@H](O)[C@@H]1C/C=C\CCCC(=O)O [PGD2, Prostaglandin D2]",IL-13 production on stimulation,additional IL-13 was produced
